The term IC50 denotes the point on the concentration scale where inhibition reaches its midpoint. Higher therefore signals weaker potency.

The source of these data is patent publication US20250214991A1 (Oncopia Therapeutics, Inc. d/b/a/ SK Life Science Labs, priority 2022, published 2025).

Assay [1] concerns the target CRBN/DDB1 (Homo sapiens (Human), UniProt Q96SW2). As to the kind of experiment: IC50 measurements for binding to CRBN/DDB1 (HTRF). The settings on record: His tagged CRBN+DDB, Cy5-labeled Thalidomide probe, one hour. In outline: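 HTRF competition binding with 2 nM His-tagged CRBN-DDB1 complex, 60 nM Cy5-thalidomide probe and 0.4 nM anti-His Tb cryptate in 50 mM HEPES pH 7.5, 1 mM TCEP, 0.01% Brij-35, 50 mM NaCl, 0.1% BSA. Read after 1 h at room temperature; IC50 from four-parameter dose-response fit.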
In general terms: Time-resolved FRET reads energy transfer from a long-lived donor to a nearby acceptor.

Assay [2] deals with IKZF2 (Homo sapiens (Human), UniProt Q96SW2+Q9UKS7). In words: In vitro IKZF2 Western Blot Assay in Jurkat cells. The assay is classed as cell-based. The settings on record: 24 hrs; for inhibition at 0.001 µM: read-out: IKZF2 degradation (%) @ μM 0.001; for inhibition at 0.01 µM: read-out: IKZF2 degradation (%) @ μM 0.01; for inhibition at 0.1 µM: read-out: IKZF2 degradation (%) @ μM 0.1; for inhibition at 1 µM: read-out: IKZF2 degradation (%) @ μM 1; for inhibition at 10 µM: read-out: IKZF2 degradation (%) @ μM 10. How it is done:
In vitro IKZF2 Western Blot Assay Jurkat cells (ATCC, Cat #HB-8065) were cultured in RPMI1640+10% FBS+1% P/S. Cells were treated at desired compound concentrations (0.001, 0.01, 0.1, 1, and 10 μM) and DMSO as vehicle control for 24 hrs. After 24 hr of treatment cells were collected by centrifugation and lysed in RIPA lysis buffer on ice for 10 min. After assessing protein concentration by BCA assay (Pierce), equal amounts of protein for each sample were loaded into 4-12% Bis-Tris gels (Invitrogen), transferred to PVDF membranes and immunoblotted with antibodies against IKZF2 and Actin (Cell Signaling). Membranes were developed on an Odyssey detection system (LI-COR Biosciences) after incubation with IRDye800-labeled goat anti-rabbit IgG and IRDye680-labeled goat anti-mouse IgG (LI-COR) secondary antibodies. Band intensities were quantified using ImageStudio software. Data was further analyzed using XLfit. Percentage of IKZF2 protein degradation: A (>50%); B (30-50%); C(<30%) (Table 2).
On the technique in general: In western blotting, separated proteins are transferred to a membrane and probed.

Chain of CRBN/DDB1 (Q96SW2 whole entry, species assumed): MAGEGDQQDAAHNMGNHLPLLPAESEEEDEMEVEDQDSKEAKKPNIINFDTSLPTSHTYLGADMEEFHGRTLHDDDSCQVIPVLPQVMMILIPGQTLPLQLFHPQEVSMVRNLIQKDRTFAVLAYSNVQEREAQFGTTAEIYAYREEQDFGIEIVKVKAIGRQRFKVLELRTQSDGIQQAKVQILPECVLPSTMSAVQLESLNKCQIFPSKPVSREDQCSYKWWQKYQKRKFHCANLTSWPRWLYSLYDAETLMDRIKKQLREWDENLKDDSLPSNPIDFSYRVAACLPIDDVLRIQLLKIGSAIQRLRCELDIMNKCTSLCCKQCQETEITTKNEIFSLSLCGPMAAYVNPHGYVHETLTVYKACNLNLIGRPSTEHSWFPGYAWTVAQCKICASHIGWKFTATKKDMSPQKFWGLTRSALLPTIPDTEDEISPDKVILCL
Chain of CRBN/DDB1 (Q16531 whole entry partner, species assumed): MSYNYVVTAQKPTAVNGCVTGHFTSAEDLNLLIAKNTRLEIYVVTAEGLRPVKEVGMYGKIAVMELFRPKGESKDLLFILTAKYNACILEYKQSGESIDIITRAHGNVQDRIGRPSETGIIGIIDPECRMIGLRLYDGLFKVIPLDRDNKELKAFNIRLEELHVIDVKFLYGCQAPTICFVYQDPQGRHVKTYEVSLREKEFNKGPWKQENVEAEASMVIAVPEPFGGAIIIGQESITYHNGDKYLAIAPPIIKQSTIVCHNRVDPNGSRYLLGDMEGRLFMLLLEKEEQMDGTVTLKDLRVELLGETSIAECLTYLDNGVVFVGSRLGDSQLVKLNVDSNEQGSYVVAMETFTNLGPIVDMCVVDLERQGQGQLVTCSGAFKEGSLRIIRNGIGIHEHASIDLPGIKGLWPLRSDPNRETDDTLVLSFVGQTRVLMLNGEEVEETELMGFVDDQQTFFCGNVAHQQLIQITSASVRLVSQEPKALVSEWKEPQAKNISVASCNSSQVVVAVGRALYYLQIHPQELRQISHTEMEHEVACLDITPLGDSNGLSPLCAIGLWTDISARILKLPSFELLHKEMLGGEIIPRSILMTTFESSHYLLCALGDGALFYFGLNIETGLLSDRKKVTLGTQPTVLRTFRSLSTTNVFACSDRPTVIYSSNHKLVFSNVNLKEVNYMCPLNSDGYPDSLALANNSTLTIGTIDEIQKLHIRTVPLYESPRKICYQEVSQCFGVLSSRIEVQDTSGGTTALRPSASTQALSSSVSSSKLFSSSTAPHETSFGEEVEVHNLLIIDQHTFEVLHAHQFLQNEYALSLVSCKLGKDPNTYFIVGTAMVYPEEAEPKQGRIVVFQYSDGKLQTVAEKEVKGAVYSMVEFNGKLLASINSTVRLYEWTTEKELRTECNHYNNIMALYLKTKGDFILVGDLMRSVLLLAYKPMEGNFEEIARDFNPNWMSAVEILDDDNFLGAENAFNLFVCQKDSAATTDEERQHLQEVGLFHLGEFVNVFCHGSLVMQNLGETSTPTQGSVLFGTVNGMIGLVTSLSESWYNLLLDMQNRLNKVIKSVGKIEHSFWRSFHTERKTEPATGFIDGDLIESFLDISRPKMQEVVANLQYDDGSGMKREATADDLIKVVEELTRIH
Chain of IKZF2 (Q9UKS7 whole entry): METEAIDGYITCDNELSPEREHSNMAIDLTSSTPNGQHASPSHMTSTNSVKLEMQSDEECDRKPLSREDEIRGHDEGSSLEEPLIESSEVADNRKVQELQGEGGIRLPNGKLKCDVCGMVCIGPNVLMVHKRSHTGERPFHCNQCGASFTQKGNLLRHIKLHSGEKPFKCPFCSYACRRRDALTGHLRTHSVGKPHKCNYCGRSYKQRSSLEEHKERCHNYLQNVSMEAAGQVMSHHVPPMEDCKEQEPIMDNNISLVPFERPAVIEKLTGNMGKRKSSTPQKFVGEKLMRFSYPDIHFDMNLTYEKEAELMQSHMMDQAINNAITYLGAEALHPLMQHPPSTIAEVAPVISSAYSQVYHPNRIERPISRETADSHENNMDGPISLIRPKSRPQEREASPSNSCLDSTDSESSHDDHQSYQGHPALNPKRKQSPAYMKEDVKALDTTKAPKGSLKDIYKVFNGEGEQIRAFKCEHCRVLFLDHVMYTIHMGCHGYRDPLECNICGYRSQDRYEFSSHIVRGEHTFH
Chain of IKZF2 (Q96SW2 whole entry): as the sequence (Q96SW2 whole entry, species assumed) above
Chain of IKZF2 (Q16531 2-1140 partner): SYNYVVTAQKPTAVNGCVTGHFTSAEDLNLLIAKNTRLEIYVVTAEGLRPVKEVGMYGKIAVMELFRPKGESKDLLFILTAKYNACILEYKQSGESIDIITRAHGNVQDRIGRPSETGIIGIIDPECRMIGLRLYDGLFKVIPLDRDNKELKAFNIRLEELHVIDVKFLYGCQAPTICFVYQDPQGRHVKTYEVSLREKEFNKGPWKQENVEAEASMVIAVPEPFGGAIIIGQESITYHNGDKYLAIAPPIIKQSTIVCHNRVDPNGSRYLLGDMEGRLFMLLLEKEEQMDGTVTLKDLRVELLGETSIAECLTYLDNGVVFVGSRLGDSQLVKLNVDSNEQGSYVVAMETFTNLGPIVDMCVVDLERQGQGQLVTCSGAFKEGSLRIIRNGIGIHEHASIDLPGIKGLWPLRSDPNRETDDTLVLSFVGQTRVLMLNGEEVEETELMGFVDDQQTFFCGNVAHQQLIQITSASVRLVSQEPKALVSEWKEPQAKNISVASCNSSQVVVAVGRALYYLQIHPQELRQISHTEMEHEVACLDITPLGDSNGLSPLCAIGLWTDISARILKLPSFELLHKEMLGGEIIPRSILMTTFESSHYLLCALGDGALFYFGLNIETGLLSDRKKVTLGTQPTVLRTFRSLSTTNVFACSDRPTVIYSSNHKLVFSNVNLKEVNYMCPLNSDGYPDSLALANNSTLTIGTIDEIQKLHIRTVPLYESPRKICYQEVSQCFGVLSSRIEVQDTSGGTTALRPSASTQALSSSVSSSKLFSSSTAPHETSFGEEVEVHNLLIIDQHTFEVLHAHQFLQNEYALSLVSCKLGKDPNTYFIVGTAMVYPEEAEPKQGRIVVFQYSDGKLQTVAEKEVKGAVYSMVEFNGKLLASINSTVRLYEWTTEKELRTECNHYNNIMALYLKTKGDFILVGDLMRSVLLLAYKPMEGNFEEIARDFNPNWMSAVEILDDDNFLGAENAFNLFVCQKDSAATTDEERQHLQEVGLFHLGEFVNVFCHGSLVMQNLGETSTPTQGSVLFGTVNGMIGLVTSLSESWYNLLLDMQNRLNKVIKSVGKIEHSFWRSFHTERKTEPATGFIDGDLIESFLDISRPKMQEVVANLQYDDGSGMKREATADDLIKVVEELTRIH

As to `CC1(C)CCN(Cc2cc(-c3ccc4c(c3)CN(C3CCC(=O)NC3=O)C4=O)c3nccn3c2)CC1` (stereo not drawn) [Example 36, 3-(5-(6-((4,4-dimethylpiperidin-1-yl)methyl)imidazo[1,2-a]pyridin-8-yl)-1-oxoisoindolin-2-yl) piperidine-2,6-dione], in assay [1], the IC50 lay within 100 to 500 nM. Further, in assay [2], the inhibition at 0.001 µM was in the range of 30 to 50%, the inhibition at 0.01 µM lay in the range of 30 to 50%, the inhibition at 0.1 µM was below 30% and the inhibition at 1 µM was below 30%. For the same compound, in assay [2], the inhibition at 10 µM is below 30%.
`O=C1CCC(N2Cc3cc(-c4cc(CN5CCC(C(F)(F)F)CC5)cn5ccnc45)ccc3C2=O)C(=O)N1` (stereo not drawn) [Example 37, 3-(1-oxo-5-(6-((4-(trifluoromethyl)piperidin-1-yl)methyl)imidazo[1,2-a]pyridin-8-yl)isoindolin-2-yl) piperidine-2,6-dione] had an IC50 in assay [1] below 100 nM. In addition, in assay [2], the inhibition at 0.001 µM was below 30%, the inhibition at 0.01 µM was below 30%, the inhibition at 0.1 µM was below 30% and the inhibition at 1 µM is below 30%. Also, the inhibition at 10 µM in assay [2] is below 30%.
In turn, `O=C1CCC(N2Cc3cc(-c4cc(CNCc5ccccc5Cl)cn5ccnc45)ccc3C2=O)C(=O)N1` (stereo not drawn) [Example 38, 3-(5-(6-(((2-chlorobenzyl)amino)methyl)imidazo[1,2-a]pyridin-8-yl)-1-oxoisoindolin-2-yl) piperidine-2,6-dione] registered an IC50 in assay [1] of 100 to 500 nM. Besides, in assay [2], the inhibition at 0.001 µM was below 30%, the inhibition at 0.01 µM is below 30%, the inhibition at 0.1 µM is below 30% and the inhibition at 1 µM was below 30%. In assay [2], the inhibition at 10 µM is below 30%.
In assay [1], `O=C1CCC(N2Cc3cc(-c4cc(CNCCc5c(F)cccc5F)cn5ccnc45)ccc3C2=O)C(=O)N1` (stereo not drawn) [Example 39, 3-(5-(6-(((2,6-difluorophenethyl)amino)methyl)imidazo[1,2-a]pyridin-8-yl)-1-oxoisoindolin-2-yl) piperidine-2,6-dione] displayed a 50% inhibitory concentration (IC50) below 100 nM. In addition, in assay [2], the inhibition at 0.001 µM is below 30%, the inhibition at 0.01 µM is below 30%, the inhibition at 0.1 µM is below 30% and the inhibition at 1 µM was below 30%. Further, the inhibition at 10 µM in assay [2] is below 30%.
Turning to `O=C1CCC(N2Cc3cc(-c4cc(CNCCc5ccc(Cl)cc5Cl)cn5ccnc45)ccc3C2=O)C(=O)N1` (stereo not drawn) [Example 40, 3-(5-(6-(((2,4-dichlorophenethyl)amino)methyl)imidazo[1,2-a]pyridin-8-yl)-1-oxoisoindolin-2-yl) piperidine-2,6-dione], the IC50 in assay [1] lay within 100 to 500 nM. In assay [2], the inhibition at 0.001 µM was below 30%, the inhibition at 0.01 µM was below 30%, the inhibition at 0.1 µM was below 30% and the inhibition at 1 µM is below 30%. Besides, the inhibition at 10 µM in assay [2] was in the range of 30 to 50%.
On to `O=C1CCC(N2Cc3cc(-c4cc(CNCCc5c(Cl)cccc5Cl)cn5ccnc45)ccc3C2=O)C(=O)N1` (stereo not drawn) [Example 41, 3-(5-(6-(((2,6-dichlorophenethyl)amino)methyl)imidazo[1,2-a]pyridin-8-yl)-1-oxoisoindolin-2-yl) piperidine-2,6-dione], for which the IC50 in assay [1] was 100 to 500 nM. In assay [2], the inhibition at 0.001 µM is below 30%, the inhibition at 0.01 µM was below 30%, the inhibition at 0.1 µM was below 30% and the inhibition at 1 µM was below 30%. For the same compound, the inhibition at 10 µM in assay [2] was below 30%.
Regarding `Cc1ccccc1CCNCc1cc(-c2ccc3c(c2)CN(C2CCC(=O)NC2=O)C3=O)c2nccn2c1` (stereo not drawn) [Example 42, 3-(5-(6-(((2-methylphenethyl)amino)methyl)imidazo[1,2-a]pyridin-8-yl)-1-oxoisoindolin-2-yl) piperidine-2,6-dione], the IC50 in assay [1] is below 100 nM. Also, in assay [2], the inhibition at 0.001 µM is below 30%, the inhibition at 0.01 µM was below 30%, the inhibition at 0.1 µM is below 30% and the inhibition at 1 µM is below 30%. Moreover, in assay [2], the inhibition at 10 µM was 30 to 50%.
As to `O=C1CCC(N2Cc3cc(-c4cc(CNCCc5ccccc5C(F)(F)F)cn5ccnc45)ccc3C2=O)C(=O)N1` (stereo not drawn) [Example 43], the IC50 in assay [1] was below 100 nM. In assay [2], the inhibition at 0.001 µM was below 30%, the inhibition at 0.01 µM is below 30%, the inhibition at 0.1 µM was below 30% and the inhibition at 1 µM was below 30%. Also, the inhibition at 10 µM in assay [2] is below 30%.
`O=C1CCC(N2Cc3cc(-c4cc(CNCCc5ccccc5Cl)cn5ccnc45)ccc3C2=O)C(=O)N1` (stereo not drawn) [Example 44, 3-(5-(6-(((2-chlorophenethyl)amino)methyl)imidazo[1,2-a]pyridin-8-yl)-1-oxoisoindolin-2-yl) piperidine-2,6-dione] yielded an IC50 in assay [1] of 100 to 500 nM. Besides, in assay [2], the inhibition at 0.001 µM is below 30%, the inhibition at 0.01 µM is below 30%, the inhibition at 0.1 µM lay within 30 to 50% and the inhibition at 1 µM is below 30%. Further, in assay [2], the inhibition at 10 µM was in the range of 30 to 50%.
In the case of `CC(NCc1cc(-c2ccc3c(c2)CN(C2CCC(=O)NC2=O)C3=O)c2nccn2c1)c1ccccc1` (stereo not drawn) [Example 45, 3-(1-oxo-5-(6-(((1-phenylethyl)amino)methyl)imidazo[1,2-a]pyridin-8-yl)isoindolin-2-yl) piperidine-2,6-dione], the IC50 in assay [1] is 100 to 500 nM. In assay [2], the inhibition at 0.001 µM lay in the range of 30 to 50%, the inhibition at 0.01 µM is below 30%, the inhibition at 0.1 µM was below 30% and the inhibition at 1 µM was above 50%. Also, the inhibition at 10 µM in assay [2] was below 30%.
With `CC(C)(NCc1cc(-c2ccc3c(c2)CN(C2CCC(=O)NC2=O)C3=O)c2nccn2c1)c1ccccc1` (stereo not drawn) [Example 46, 3-(1-oxo-5-(6-(((2-phenylpropan-2-yl)amino)methyl)imidazo[1,2-a]pyridin-8-yl)isoindolin-2-yl) piperidine-2,6-dione], in assay [1], the IC50 was 100 to 500 nM. In addition, in assay [2], the inhibition at 0.001 µM is below 30%, the inhibition at 0.01 µM was below 30%, the inhibition at 0.1 µM lay within 30 to 50% and the inhibition at 1 µM was above 50%. Further, in assay [2], the inhibition at 10 µM is above 50%.
Turning to `O=C1CCC(N2Cc3cc(-c4cc(CN5CCC(c6ccccc6)CC5)cn5ccnc45)ccc3C2=O)C(=O)N1` (stereo not drawn) [Example 47, 3-(1-oxo-5-(6-((4-phenylpiperidin-1-yl)methyl)imidazo[1,2-a]pyridin-8-yl)isoindolin-2-yl) piperidine-2,6-dione], in assay [1], the IC50 is below 100 nM. Further, in assay [2], the inhibition at 0.001 µM was in the range of 30 to 50%, the inhibition at 0.01 µM is 30 to 50%, the inhibition at 0.1 µM was below 30% and the inhibition at 1 µM was below 30%. Moreover, the inhibition at 10 µM in assay [2] was below 30%.
`O=C1CCC(N2Cc3cc(-c4cc(CN5CC(c6ccccc6)C5)cn5ccnc45)ccc3C2=O)C(=O)N1` (stereo not drawn) [Example 48, 3-(1-oxo-5-(6-((3-phenylazetidin-1-yl)methyl)imidazo[1,2-a]pyridin-8-yl)isoindolin-2-yl) piperidine-2,6-dione] returned an IC50 in assay [1] below 100 nM. In assay [2], the inhibition at 0.001 µM was below 30%, the inhibition at 0.01 µM was below 30%, the inhibition at 0.1 µM is below 30% and the inhibition at 1 µM is below 30%. Further, in assay [2], the inhibition at 10 µM was below 30%.
In the case of `O=C1CCC(N2Cc3cc(-c4cc(CN5CCCC5c5ccccc5)cn5ccnc45)ccc3C2=O)C(=O)N1` (stereo not drawn) [Example 49, 3-(1-oxo-5-(6-((2-phenylpyrrolidin-1-yl)methyl)imidazo[1,2-a]pyridin-8-yl)isoindolin-2-yl) piperidine-2,6-dione], the IC50 in assay [1] is 100 to 500 nM. In assay [2], the inhibition at 0.001 µM is below 30%, the inhibition at 0.01 µM was below 30%, the inhibition at 0.1 µM was below 30% and the inhibition at 1 µM was below 30%. Further, the inhibition at 10 µM in assay [2] was below 30%.
